Where two headings read alike, the source gives them in different places.
Tested on: HCV replicon
Assay: HCV replicon replication assay (NPTII ELISA)
Type: cell-based, Hepatitis C virus (Huh-7 cells)
Settings: Hepatitis C virus, Huh-7, 72 h, inhibition of HCV replicon replication in Huh-7 HCV replicon-containing cells, three days incubation, NPT level by ELISA
How it was run: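 Huh-7 cells carrying a Bartenschlager NPTII (neo) HCV replicon, treated 3 days at 37 °C with compound, generally 6 concentrations from 10 to 0.03 micromolar, in equal DMSO across wells. NPTII level, proportional to replication, read by capture ELISA on methanol:acetone-fixed cells; interferon alpha positive control; toxicity scored visually or by MTS.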

Structure (SMILES) | EC50 (read-out: EC50) | EC50
CCCCCOc1ccc(N(C(=O)C2CCCCC2)c2nc(-c3ccccn3)cs2)cc1C(F)(F)F [Compound 96, N-(4-(pentyloxy)-3-(trifluoromethyl)phenyl)-N-(4-(pyridin-2-yl)thiazol-2-yl)cyclohexanecarboxamide] | < 1000 nM | 
CCCCCN(C)c1ccc(N(C(N)=O)c2nc(-c3ccc(F)cc3)cs2)cc1C(F)(F)F [Compound 140, 1-(4-(4-fluorophenyl)thiazol-2-yl)-1-(4-(methyl(pentyl)amino)-3-(trifluoromethyl)phenyl)urea] | < 1000 nM | 
CCCCCCCCOc1ccc(N(C(C)=O)c2nc(-c3cccnc3)cs2)cc1 [Compound 68, N-(4-(octyloxy)phenyl)-N-(4-(pyridin-3-yl)thiazol-2-yl)acetamide] | < 1000 nM | 
CCCCCOc1ccc(N(C(=O)Nc2ccccc2)c2nc(-c3cccnc3)cs2)cc1C(F)(F)F [Compound 81, 1-(4-(pentyloxy)-3-(trifluoromethyl)phenyl)-3-phenyl-1-(4-(pyridin-3-yl)thiazol-2-yl)urea] | < 1000 nM | 
CCCCCOc1ccc(N(C(=O)CO)c2nc(-c3cccnc3)cs2)cc1C(F)(F)F [Compound 62, 2-hydroxy-N-(4-(pentyloxy)-3-(trifluoromethyl)phenyl)-N-(4-(pyridin-3-yl)thiazol-2-yl)acetamide] | < 1000 nM | 
CCCCCCCOc1ccc(N(C(=O)c2cc(C)on2)c2nc(-c3nc4ccccc4s3)cs2)cc1 [Compound 92, N-(4-(benzo[d]thiazol-2-yl)thiazol-2-yl)-N-(4-(heptyloxy)phenyl)-5-methylisoxazole-3-carboxamide] | 1000 to 10000 nM | 
CCCCCOc1ccc(N(C(=O)C(=O)OC)c2nc(-c3ccc(F)cc3F)cs2)cc1C(F)(F)F [Compound 37, methyl 2-((4-(2,4-difluorophenyl)thiazol-2-yl)(4-(pentyloxy)-3-(trifluoromethyl)phenyl)amino)-2-oxoacetate] | < 1000 nM | 
CCCCCCCCOc1ccc(N(C(N)=O)c2nc(-c3ccc(F)cc3)cs2)cc1 [Compound 61, 1-(4-(4-fluorophenyl)thiazol-2-yl)-1-(4-(octyloxy)phenyl)urea] | 1000 to 10000 nM | 
CCCCCOc1ccc(N(C(=O)C(C)C)c2nc(CN(C)C)cs2)cc1C(F)(F)F [Compound 21, N-(4-((dimethylamino)methyl)thiazol-2-yl)-N-(4-(pentyloxy)-3-(trifluoromethyl)phenyl)isobutyramide] | 1000 to 10000 nM | 
C/C=N/N(c1ccc(OCCCCCCCC)cc1)c1nc(-c2cccnc2)cs1 [Compound 190, (E)-2-(2-ethylidene-1-(4-(octyloxy)phenyl)hydrazinyl)-4-(pyridin-3-yl)thiazolo] | < 1000 nM | 
CCCCCOc1ccc(N(C(N)=O)c2nc(-c3ccc4c(c3)NC(=O)CO4)cs2)cc1F [Compound 110, 1-(3-fluoro-4-(pentyloxy)phenyl)-1-(4-(3-oxo-3,4-dihydro-2H-benzo[b][1,4]oxazin-6-yl)thiazol-2-yl)urea] | > 10000 nM | 
CCCCCOc1ccc(N(C)c2nc(C(=O)Nc3ccc(Cl)cc3)cs2)cc1C(F)(F)F [Compound 4, N-(4-chlorophenyl)-2-(methyl(4-(pentyloxy)-3-(trifluoromethyl)phenyl)amino)thiazole-4-carboxamide] | 1000 to 10000 nM | 
CCCCCCCCOc1ccc(N(C(=O)c2cc(C)on2)c2nc(-c3nc4ccccc4s3)cs2)cc1 [Compound 90] |  | 1000 to 10000 nM
CCCCCOc1ccc(N(C(=O)OC)c2nc(-c3ccc(F)cc3)cs2)cc1F [Compound 46, methyl 3-fluoro-4-(pentyloxy)phenyl(4-(4-fluorophenyl)thiazol-2-yl)carbamate] | 1000 to 10000 nM | 
CCCCCOc1ccc(N(C(=O)OC)c2nc(-c3ccc(F)c(F)c3)cs2)cc1C(F)(F)F [Compound 56, methyl 4-(3,4-difluorophenyl)thiazol-2-yl(4-(pentyloxy)-3-(trifluoromethyl)phenyl)carbamate] | < 1000 nM | 
NCCN(c1ccc(OCCCCc2cccs2)c(C(F)(F)F)c1)c1nc(-c2cccnc2)c(F)s1 [Compound 193, N1-(5-fluoro-4-(pyridin-3-yl)thiazol-2-yl)-N1-(4-(4-(thiophen-2-yl)butoxy)-3-(trifluoromethyl)phenyl)ethane-1,2-diamine] | 1000 to 10000 nM | 
CCCCCOc1ccc(N(C(=O)C(OC(C)=O)c2ccccc2)c2nc(-c3cccnc3)cs2)cc1C(F)(F)F (stereo not shown) [Compound 65, 2-oxo-2-((4-(pentyloxy)-3-(trifluoromethyl)phenyl)(4-(pyridin-3-yl)thiazol-2-yl)amino)-1-phenylethyl acetate] | < 1000 nM | 
CCCCCN(C)c1ccc(N(C(=O)COC(C)=O)c2nc(-c3cccnc3)cs2)cc1C(F)(F)F [Compound 51, 2-((4-(methyl(pentyl)amino)-3-(trifluoromethyl)phenyl)(4-(pyridin-3-yl)thiazol-2-yl)amino)-2-oxoethyl acetate] | < 1000 nM | 
CCCCCCCCOc1ccc(N(C(=O)COC(C)=O)c2nc(-c3cccnc3)c(F)s2)cc1C(F)(F)F [Compound 168, 2-((5-fluoro-4-(pyridin-3-yl)thiazol-2-yl)(4-(octyloxy)-3-(trifluoromethyl)phenyl)amino)-2-oxoethyl acetate] | < 1000 nM | 
CCCCCCOc1ccc(N(C(N)=O)c2nc(-c3ccncc3)cs2)cc1 [Compound 146, 1-(4-(hexyloxy)phenyl)-1-(4-(pyridin-4-yl)thiazol-2-yl)urea] | 1000 to 10000 nM | 
CCCCCOc1ccc(N(C)c2nc(-c3ccc(CN4CCN(C)CC4)nc3)cs2)cc1C(F)(F)F [Compound 10, N-methyl-4-(6-((4-methylpiperazin-1-yl)methyl)pyridin-3-yl)-N-(4-(pentyloxy)-3-(trifluoromethyl)phenyl)thiazol-2-amine] | < 1000 nM | 
CCCCCCCC(F)(F)c1ccc(N(C(C)=O)c2nc(-c3cccnc3)cs2)cc1 [Compound 154, N-(4-(1,1-difluorooctyl)phenyl)-N-(4-(pyridin-3-yl)thiazol-2-yl)acetamide] | < 1000 nM | 
CCCCCCCCc1ccc(N(C(=O)OCC[N+](C)(C)C)c2nc(-c3cccnc3)c(F)s2)cc1C(F)(F)F [Compound 181] | < 1000 nM | 
CCCCCCCOc1ccc(N(C(N)=O)c2nc(-c3ccc(F)cc3)cs2)cc1 [Compound 71, 1-(4-(4-fluorophenyl)thiazol-2-yl)-1-(4-(heptyloxy)phenyl)urea] | < 1000 nM | 
COc1ccc(N(C(N)=O)c2nc(-c3cccnc3)cs2)cc1C(F)(F)F [Compound 84, 1-(4-methoxy-3-(trifluoromethyl)phenyl)-1-(4-(pyridin-3-yl)thiazol-2-yl)urea] | < 1000 nM | 
CCCCCCCCOc1ccc(N(C(=O)c2cccnc2)c2nc(-c3nc4ccccc4s3)cs2)cc1 [Compound 101, N-(4-(benzo[d]thiazol-2-yl)thiazol-2-yl)-N-(4-(octyloxy)phenyl)nicotinamide] | 1000 to 10000 nM | 
CCCCCOc1ccc(N(C(=O)NCC)c2nc(-c3cccnc3)cs2)cc1C(F)(F)F [Compound 75, 3-ethyl-1-(4-(pentyloxy)-3-(trifluoromethyl)phenyl)-1-(4-(pyridin-3-yl)thiazol-2-yl)urea] | < 1000 nM | 
CCCCOc1ccc(N(C(N)=O)c2nc(-c3ccc(F)cc3)cs2)cc1C(F)(F)F [Compound 135, 1-(4-butoxy-3-(trifluoromethyl)phenyl)-1-(4-(4-fluorophenyl)thiazol-2-yl)urea] | < 1000 nM | 
